Reference: patent US9422303B2, “Formulations of water-insoluble chemical compounds and methods of using a formulation of compound FL118 for cancer therapy” (Health Research, Inc., priority 2010, dated 2016)

Columns and labels:
[1] = system: human 17073 primary head & neck xenografts; assay: Antitumor activity and toxicity in SCID mice bearing human 17073 primary head & neck xenografts; format: in vivo; conditions: at MTD
Source text: FIG. 2 Comparison of antitumor activity and toxicity (body weight loss) of FL118 with irinotecan in SCID mice bearing human 17073 primary head & neck xenografts: A and B. Antitumor activity and toxicity of FL118 and irinotecan against 17073 tumors. C, D and E. Individual 17073 tumor in response to FL118 and irinotecan. The treatment schedule was weekly×4 as indicated by arrows. The doses for FL118 and irinotecan were their MTD in the weekly×4 schedule.
(§1) Human tumor xenografts were initially established by injecting s.c 1×10^6 cultured cancer cells. The xenografts were then passed several generations by transplanting 40-50 mg non-necrotic tumor tissues via a trocar from the passage tumors. Human primary tumors were initially obtained from cancer patients at Roswell Park Cancer Institute and established in SCID mice. Human tumor xenografts used in this study include human head & neck squamous cell carcinoma FaDu, human primary head & neck tumor 17073, human ileocecal adenocarcinoma HCT-8, human colon cancer SW620 and human primary colon cancer 11124 and 14528. Treatment was initiated 7 days after tumor transplantation when the tumor reaches 200-250 mg, at which the treatment was designated as Day 0. All cancer cells used for tumor establishment were tested for mycoplasma free. The transplantable tumor has similar histological profile of cultured cells.
Two axes (mm) of a tumor (L, longest axis; W, shortest axis) were measured with a Vernier caliper. Tumor weight (mg) was estimated using a formula of “tumor weight=½ (L×W^2)”. […]
(§2) Antitumor activity was assessed by maximum tumor growth inhibition (MTGI), which is the mean tumor weight difference between treated group (MTWTG) and untreated control group (MTWCG) at the same time. The calculated formula is “MTGI=(MTWTG−MTWCG)÷MTWCG×100%”. […] Tumor response was expressed as 1) partial tumor response (PR) when tumor weight was reduced at least 50% initial tumor size on Day 0 and 2) complete tumor response (CR) which was defined as inability to detect tumor via palpitation at the initial tumor-transplanted site. […]

[2] = irinotecan, stated without source; cited from earlier work
[3] = system: human FaDu head and neck tumor xenografts; assay: Antitumor activity in nude mice bearing human FaDu head and neck tumor xenografts; format: in vivo; conditions: one-time i.p. injection at about MTD (FIG. 1)
Description: (§3) Six to 12-week-old female athymic nude mice (nu/nu, body weight 20-25 g) were purchased from Charles River Laboratories International, Inc. (Wilmington, Mass.) or Harlan Sprague Dawley Inc. (Indianapolis, Ind.). Six to 12-week-old female SCID mice were purchased from Roswell Animal facility (DLAR). Mice were housed at 5 mice per cage with water and food ad libitum. All animal experiments are performed in accordance with our IACUC-approved animal protocol.
FL118 was first dissolved in DMSO at a concentration of 1 mg/ml, and further diluted in a fresh Tween-80/saline solution. The final work solution consists of FL118 (0.05 mg/ml), 75% saline (V/V), 20% Tween-80 (V/V) and 5% DMSO (V/V). […]
(§4) Two axes (mm) of a tumor (L, longest axis; W, shortest axis) were measured with a Vernier caliper. […]
as §2

[4] = system: human HCT-8 colon tumor xenografts; assay: Antitumor activity in nude mice bearing human HCT-8 colon tumor xenografts; format: in vivo
Description: as §3
FL118 was first dissolved in DMSO at a concentration of 1 mg/ml, and further diluted in a fresh Tween-80/saline solution. The final work solution consists of FL118 (0.05 mg/ml), 75% saline (V/V), 20% Tween-80 (V/V) and 5% DMSO (V/V). Control solution (placebo or vehicle) is 75% saline, 20% Tween-80 and 5% DMSO without FL118. Other FDA-approved anticancer drugs used in this invention for a comparison were used clinical formulations from the corresponding manufactures.
as §1
The following schedules were used: 1) i.p. daily×2: once a day for consecutive 2 days; 2) i.p. daily×3: once a day for consecutive 3 days; 3) daily×5: once a day for consecutive 5 days (i.p. or p.o.); 4) i.p.×3 (day 0, 2, 4): 3 times on day 0, 2, and 4; 5) i.p. 2 days/week×¾: 2 times a week for 3 or 4 consecutive weeks; 6) weekly×4: once a week for 4 consecutive weeks (i.p. or p.o.); 7) i.p. biweekly×4: once every two weeks for 8 weeks; 8) 2 days/week×4: give 2 times a week for 4 weeks; and 9) i.p.×1: one time drug i.p. injection on Day 0.
Two axes (mm) of a tumor (L, longest axis; W, shortest axis) were measured with a Vernier caliper. Tumor weight (mg) was estimated using a formula of “tumor weight=½ (L×W^2)”. Tumor measurement was taken daily for the first two weeks and/or during the FL118 treatment period (with the exception of weekend) and then three times a week for the following two weeks of post therapy and twice a week thereafter.
Antitumor activity was assessed by maximum tumor growth inhibition (MTGI), which is the mean tumor weight difference between treated group (MTWTG) and untreated control group (MTWCG) at the same time. The calculated formula is “MTGI=(MTWTG−MTWCG)÷MTWCG×100%”. The tumor doubling time (TDT) was defined as the mean time for the tumor reaching twice its initial weight from the time beginning the treatment (Day 0). Tumor response was expressed as 1) partial tumor response (PR) when tumor weight was reduced at least 50% initial tumor size on Day 0 and 2) complete tumor response (CR) which was defined as inability to detect tumor via palpitation at the initial tumor-transplanted site. […]

[5] = system: human tumor xenografts; assay: Antitumor activity/toxicity in human tumor mouse models (general statements); format: in vivo; conditions: example: SCID mice, primary colon 11124 and 14528, weekly×4 (FIG. 15)
Description: as §3
Human tumor xenografts were initially established by injecting s.c 1×10^6 cultured cancer cells. The xenografts were then passed several generations by transplanting 40-50 mg non-necrotic tumor tissues via a trocar from the passage tumors. […]
as §4, §2

[6] = Solubility testing in DMSO, ethanol, water

With `CCc1c2c(nc3ccc(OC(=O)N4CCC(N5CCCCC5)CC4)cc13)-c1cc3c(c(=O)n1C2)COC(=O)[C@]3(O)CC` [Irinotecan, irinotecan] the “body weight loss (toxicity)” value ([1]; weekly×4) was “accumulated body weight loss”, the “tumor relapse after complete response” value ([1]; weekly×4) was “rapid relapse” and the “mice with complete response” value ([1]; weekly×4, 5 mice per group) was 40%. The MTD [2] was 100 to 200 mg/kg, the “antitumor activity compared with FDA-approved drugs” value [3] was “second most effective compound” and the CR ([4]; 100 mg/kg, i.p. weekly × 4) was 0%. It also gave an MTGI ([4]; 100 mg/kg, i.p. weekly × 4) of 94.1 ± 3.6%, a PR ([4]; 100 mg/kg, i.p. weekly × 4) of 60% and a TDT ([4]; 100 mg/kg, i.p. weekly × 4) of 32.7 ± 11.5 days. For the same compound, the “antitumor activity compared with FDA-approved drugs” value ([4]; one-time i.p. injection at about MTD (FIG. 1)) was “second most effective compound”.

In the case of `CCC1(O)C(=O)OCc2c1cc1n(c2=O)Cc2cc3cc4c(cc3nc2-1)OCO4` (racemic) [FL113, 10H,12H-1,3-Dioxolo[4,5-g]pyrano[3′,4′:6,7]indolizino[1,2-b]quinoline-8,11(7H,10H)-dione, 7-ethyl-7-hydroxy-, (+-)], the “antitumor activity, comparison of FL118, FL113 and irinotecan” value [5] is reported as “better than irinotecan in most cases” and the solubility in ethanol [6] is reported as “poorly dissolve in ethanol”.
